Reference: ChEMBL document CHEMBL1201862, “PubChem BioAssay data set” (2004)
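1) Cells in 96-well plates. 2) Compound, 48 h, 5 concentrations. 3) Linear interpolation between surrounding doses. 4) Unreached endpoint = highest concentration. GI50: concentration for 50% inhibition of growth.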 The source made the active and inactive calls. Rule as the data show it: active = GI50 up to about 1.1 µM and inactive = higher.

Tests used:
Assay in all cases: NCI-60 cell line screen, 48 h
ACHN = test system: ACHN
CAKI-1 = test system: CAKI-1
HCT-116 = test system: HCT-116
HL-60 = test system: HL-60
HOP-62 = test system: HOP-62
HT-29 = test system: HT-29
Hs-578T = test system: Hs-578T
LOX IMVI = test system: LOX IMVI
MDA-MB-231 = test system: MDA-MB-231
NCI-H23 = test system: NCI-H23
OVCAR-8 = test system: OVCAR-8
RPMI-8226 = test system: RPMI-8226
SF-539 = test system: SF-539
SK-MEL-5 = test system: SK-MEL-5
SK-OV-3 = test system: SK-OV-3
SN12C = test system: SN12C
SW-620 = test system: SW-620
UACC-257 = test system: UACC-257
BT-549 = test system: BT-549

| SMILES | GI50 (ACHN) | GI50 (CAKI-1) | GI50 (HCT-116) | GI50 (HL-60) | GI50 (HOP-62) | GI50 (HT-29) | GI50 (Hs-578T) | GI50 (LOX IMVI) | GI50 (MDA-MB-231) | GI50 (NCI-H23) | GI50 (OVCAR-8) | GI50 (RPMI-8226) | GI50 (SF-539) | GI50 (SK-MEL-5) | GI50 (SK-OV-3) | GI50 (SN12C) | GI50 (SW-620) | GI50 (UACC-257) | GI50 (BT-549) |
| --- | --- | --- | --- | --- | --- | --- | --- | --- | --- | --- | --- | --- | --- | --- | --- | --- | --- | --- | --- |
| Cc1csc2nc(-c3ccc(Cl)c([N+](=O)[O-])c3)c(/C=N/NC(=N)N)n12 | 1.6 µM (inactive) | 1.83 µM (inactive) | 1.68 µM (inactive) | 1.7 µM (inactive) | 1.61 µM (inactive) | 1.77 µM (inactive) | 1.4 µM (inactive) | 1.51 µM (inactive) | 1.77 µM (inactive) | 1.7 µM (inactive) | 0.406 µM (active) | 1.75 µM (inactive) | 1.61 µM (inactive) | 1.52 µM (inactive) | 1.84 µM (inactive) | 1.76 µM (inactive) | 0.384 µM (active) | 0.459 µM (active) | – |
| FC(F)(Sc1ccccn1)c1nc2ccccc2o1 | > 100 µM (inactive) | > 100 µM (inactive) | 62.2 µM (inactive) | – | > 100 µM (inactive) | > 100 µM (inactive) | – | – | > 100 µM (inactive) | > 100 µM (inactive) | > 100 µM (inactive) | > 100 µM (inactive) | > 100 µM (inactive) | > 100 µM (inactive) | > 100 µM (inactive) | > 100 µM (inactive) | > 100 µM (inactive) | > 100 µM (inactive) | 64.1 µM (inactive) |
| C/N=C(\N)N/N=C(\C)c1ccc2oc3ccc(/C(C)=N/N/C(N)=N/C)cc3c2c1 | 5.45 µM (inactive) | 19.4 µM (inactive) | 2.79 µM (inactive) | 2.89 µM (inactive) | 1.54 µM (inactive) | 1.73 µM (inactive) | 1.43 µM (inactive) | 2.56 µM (inactive) | – | 2.39 µM (inactive) | 9.27 µM (inactive) | 2.38 µM (inactive) | 1.62 µM (inactive) | 2.62 µM (inactive) | 3.16 µM (inactive) | 2.46 µM (inactive) | 2.22 µM (inactive) | 25.6 µM (inactive) | – |
| O=C(/C=C/c1ccsc1)c1ccsc1 | 20.4 µM (inactive) | 20.9 µM (inactive) | 16.2 µM (inactive) | 17 µM (inactive) | > 100 µM (inactive) | 26.8 µM (inactive) | 27.8 µM (inactive) | 19.1 µM (inactive) | 20.6 µM (inactive) | 21.6 µM (inactive) | 26.6 µM (inactive) | 15.5 µM (inactive) | 17.5 µM (inactive) | 19.2 µM (inactive) | > 100 µM (inactive) | 19.5 µM (inactive) | 24.8 µM (inactive) | 19.1 µM (inactive) | – |
| Cc1nc(Cc2n[nH]c(C)n2)n[nH]1 | > 100 µM (inactive) | – | > 100 µM (inactive) | – | > 100 µM (inactive) | > 100 µM (inactive) | – | > 100 µM (inactive) | > 100 µM (inactive) | > 100 µM (inactive) | > 100 µM (inactive) | > 100 µM (inactive) | > 100 µM (inactive) | > 100 µM (inactive) | > 100 µM (inactive) | > 100 µM (inactive) | > 100 µM (inactive) | > 100 µM (inactive) | > 100 µM (inactive) |
| CC(=O)c1c2c(cc3c1CC1(Cc4cc5c(cc4C1)CCC5)C3)CCC2 | > 100 µM (inactive) | > 100 µM (inactive) | 75 µM (inactive) | > 100 µM (inactive) | > 100 µM (inactive) | 78.2 µM (inactive) | > 100 µM (inactive) | > 100 µM (inactive) | > 100 µM (inactive) | > 100 µM (inactive) | > 100 µM (inactive) | > 100 µM (inactive) | > 100 µM (inactive) | > 100 µM (inactive) | > 100 µM (inactive) | – | > 100 µM (inactive) | 63.8 µM (inactive) | – |
| COc1cc(C(SCc2ccccc2)SCc2ccccc2)ccc1O | > 10 µM (inactive) | > 10 µM (inactive) | 7.41 µM (inactive) | > 10 µM (inactive) | > 10 µM (inactive) | > 10 µM (inactive) | 6.12 µM (inactive) | > 10 µM (inactive) | > 10 µM (inactive) | – | > 10 µM (inactive) | > 10 µM (inactive) | > 10 µM (inactive) | > 10 µM (inactive) | 4.22 µM (inactive) | > 10 µM (inactive) | > 10 µM (inactive) | – | – |
| COc1ccc(CCN2C(=O)CC34C=CC(CC3C2=O)O4)cc1OC (centres undefined) | > 100 µM (inactive) | > 100 µM (inactive) | > 100 µM (inactive) | > 100 µM (inactive) | > 100 µM (inactive) | > 100 µM (inactive) | – | > 100 µM (inactive) | > 100 µM (inactive) | > 100 µM (inactive) | > 100 µM (inactive) | > 100 µM (inactive) | > 100 µM (inactive) | > 100 µM (inactive) | > 100 µM (inactive) | > 100 µM (inactive) | > 100 µM (inactive) | > 100 µM (inactive) | > 100 µM (inactive) |
| C/C(=C\C(=O)O)C(=O)N(C)c1ccccc1I | > 100 µM (inactive) | > 100 µM (inactive) | > 100 µM (inactive) | – | > 100 µM (inactive) | – | > 100 µM (inactive) | > 100 µM (inactive) | > 100 µM (inactive) | > 100 µM (inactive) | > 100 µM (inactive) | > 100 µM (inactive) | – | > 100 µM (inactive) | > 100 µM (inactive) | > 100 µM (inactive) | > 100 µM (inactive) | > 100 µM (inactive) | – |
| CCC1CC2CN3CCc4c([nH]c5c(-c6c(OC)ccc7c8c([nH]c67)[C@]6(C(=O)OC)CC7CC(CC)C6N(CC8)C7)c(O)ccc45)[C@](C(=O)OC)(C2)C13 (some centres undefined) | 19.6 µM (inactive) | 12.6 µM (inactive) | 13 µM (inactive) | – | 15.2 µM (inactive) | 5.37 µM (inactive) | – | 14.8 µM (inactive) | 21.6 µM (inactive) | 16 µM (inactive) | 20.5 µM (inactive) | – | 19.5 µM (inactive) | 13.6 µM (inactive) | 25.6 µM (inactive) | 4.34 µM (inactive) | 12.4 µM (inactive) | 18.6 µM (inactive) | 17.3 µM (inactive) |
| Oc1c(Cl)c(Cl)c(O)c(CCNc2ccc3ncccc3c2)c1Cl | 13.7 µM (inactive) | 12.6 µM (inactive) | 14.5 µM (inactive) | 5.07 µM (inactive) | 12.5 µM (inactive) | 30.1 µM (inactive) | 5.04 µM (inactive) | – | – | 10.2 µM (inactive) | 12.1 µM (inactive) | – | 12.5 µM (inactive) | 1.88 µM (inactive) | 11.8 µM (inactive) | 13.9 µM (inactive) | 4.63 µM (inactive) | 17.9 µM (inactive) | – |
| CCCCCCCCCCN(CCCCCCCCCC)C(=O)COc1c2cc(C(C)(C)C)cc1Cc1cc(C(C)(C)C)cc(c1OCC(=O)N(CCCCCCCCCC)CCCCCCCCCC)Cc1cc(C(C)(C)C)cc(c1OCC(=O)N(CCCCCCCCCC)CCCCCCCCCC)Cc1cc(C(C)(C)C)cc(c1OCC(=O)N(CCCCCCCCCC)CCCCCCCCCC)C2 | 14.9 µM (inactive) | – | 2.54 µM (inactive) | 15 µM (inactive) | 16.1 µM (inactive) | 2.34 µM (inactive) | – | 10.2 µM (inactive) | 17.6 µM (inactive) | 1.75 µM (inactive) | 4.16 µM (inactive) | – | 4.34 µM (inactive) | 13.5 µM (inactive) | 14.4 µM (inactive) | 13.4 µM (inactive) | 1.93 µM (inactive) | 15.6 µM (inactive) | – |
| CC1=NN(c2cccc(Cl)c2)C2(SCC(=O)N2c2nc3ccccc3s2)/C1=C\c1ccccc1 (centres undefined) | 19.6 µM (inactive) | 20 µM (inactive) | 15.9 µM (inactive) | 30.1 µM (inactive) | 22.3 µM (inactive) | 21 µM (inactive) | 18.4 µM (inactive) | 25.5 µM (inactive) | 24.4 µM (inactive) | 20.2 µM (inactive) | 19.5 µM (inactive) | 18.7 µM (inactive) | 26.4 µM (inactive) | 12.6 µM (inactive) | 19.9 µM (inactive) | – | 19.6 µM (inactive) | 21.9 µM (inactive) | – |
| Cc1ccccc1Nc1cn(CCOc2ccccc2)c(=O)n(CCOc2ccccc2)c1=O | > 100 µM (inactive) | > 100 µM (inactive) | > 100 µM (inactive) | > 100 µM (inactive) | 24.6 µM (inactive) | > 100 µM (inactive) | > 100 µM (inactive) | > 100 µM (inactive) | – | > 100 µM (inactive) | – | > 100 µM (inactive) | – | > 100 µM (inactive) | – | > 100 µM (inactive) | > 100 µM (inactive) | > 100 µM (inactive) | > 100 µM (inactive) |
| CCOC(=O)Cc1nnc2c(-c3ccccc3)nc3ccccc3n12 | 19.8 µM (inactive) | – | 35.4 µM (inactive) | > 100 µM (inactive) | 14.4 µM (inactive) | > 100 µM (inactive) | – | 53.7 µM (inactive) | 19.2 µM (inactive) | 43.3 µM (inactive) | – | > 100 µM (inactive) | > 100 µM (inactive) | > 100 µM (inactive) | 23.8 µM (inactive) | 53.8 µM (inactive) | > 100 µM (inactive) | > 100 µM (inactive) | > 100 µM (inactive) |
| CC(=O)OCC1OC(OCC2OC(N3C(=S)N[C@H]([C@@H](O)[C@H](O)[C@H](O)CO)[C@H]3O)C(OC(C)=O)C(OC(C)=O)C2OC(C)=O)C(OC(C)=O)C(OC(C)=O)C1OC(C)=O (some centres undefined) | > 100 µM (inactive) | > 100 µM (inactive) | > 100 µM (inactive) | – | > 100 µM (inactive) | 65.6 µM (inactive) | – | – | > 100 µM (inactive) | > 100 µM (inactive) | 43.9 µM (inactive) | 79.8 µM (inactive) | > 100 µM (inactive) | > 100 µM (inactive) | > 100 µM (inactive) | > 100 µM (inactive) | > 100 µM (inactive) | – | – |
